Measured values taken from patent US20220162167A1, “SUBSTITUTED BICYCLIC AND TETRACYCLIC QUINONES AND USE THEREOF AS ANTI-CANCER AGENTS” (THE REGENTS OF THE UNIVERSITY OF MICHIGAN, priority 2019, published 2022).

Assays:
Type in all cases: cell-based
NCI-H322M = experiment: NCI60 growth inhibition, NCI-H322M; details: Non-Small Cell Lung Cancer
Description: (§1) Representative compounds were tested in 60 cell lines (NCI60) at the National Cancer Institute, Developmental Therapeutics Program.
(§2) Representative compounds were tested in a panel of 60 cancer cells (NCI 60) at the National Cancer Institute. Growth inhibition are shown in table 2, table 3, table 4, table 5, and FIG. 1, FIG. 2, FIG. 3, FIG. 4, FIG. 5.

CAKI-1 = experiment: NCI60 growth inhibition, CAKI-1; details: Renal Cancer; further: test concentration or dose not given here
Description: as §1, §2

UACC-257 = experiment: NCI60 growth inhibition, UACC-257; details: Melanoma; further: test concentration or dose not given here
Description: as §1, §2

SK-MEL-2 = experiment: NCI60 growth inhibition, SK-MEL-2; details: Melanoma; further: test concentration or dose not given here
Description: as §1, §2

SK-MEL-28 = experiment: NCI60 growth inhibition, SK-MEL-28; details: Melanoma
Description: as §1, §2

NCI-H522 = experiment: NCI60 growth inhibition, NCI-H522; details: Non-Small Cell Lung Cancer
Description: as §1, §2

NCI/ADR-RES = experiment: NCI60 growth inhibition, NCI/ADR-RES; details: Ovarian Cancer
Description: as §1, §2

HCC-2998 = experiment: NCI60 growth inhibition, HCC-2998; details: Colon Cancer
Description: as §1, §2

NCI-H23 = experiment: NCI60 growth inhibition, NCI-H23; details: Non-Small Cell Lung Cancer
Description: as §1, §2

IGROV1 = experiment: NCI60 growth inhibition, IGROV1; details: Ovarian Cancer
Description: as §1, §2

786-0 = experiment: NCI60 growth inhibition, 786-0; details: Renal Cancer
Description: as §1, §2

HCT-15 = experiment: NCI60 growth inhibition, HCT-15; details: Colon Cancer; further: test concentration or dose not given here
Description: as §1, §2

KM12 = experiment: NCI60 growth inhibition, KM12; details: Colon Cancer; further: test concentration or dose not given here
Description: as §1, §2

CCRF-CEM = experiment: NCI60 growth inhibition, CCRF-CEM; details: Leukemia
Description: as §1, §2

UO-31 = experiment: NCI60 growth inhibition, UO-31; details: Renal Cancer
Description: as §1, §2

HOP-92 = experiment: NCI60 growth inhibition, HOP-92; details: Non-Small Cell Lung Cancer
Description: as §1, §2

MALME-3M = experiment: NCI60 growth inhibition, MALME-3M; details: Melanoma
Description: as §1, §2

NCI-H226 = experiment: NCI60 growth inhibition, NCI-H226; details: Non-Small Cell Lung Cancer; further: test concentration or dose not given here
Description: as §1, §2

HCT-116 = experiment: NCI60 growth inhibition, HCT-116; details: Colon Cancer
Description: as §1, §2

MOLT-4 = experiment: NCI60 growth inhibition, MOLT-4; details: Leukemia
Description: as §1, §2

PC-3 = experiment: NCI60 growth inhibition, PC-3; details: Prostate Cancer
Description: as §1, §2

SK-MEL-5 = experiment: NCI60 growth inhibition, SK-MEL-5; details: Melanoma
Description: as §1, §2

OVCAR-3 = experiment: NCI60 growth inhibition, OVCAR-3; details: Ovarian Cancer
Description: as §1, §2

SN12C = experiment: NCI60 growth inhibition, SN12C; details: Renal Cancer
Description: as §1, §2

HT29 = experiment: NCI60 growth inhibition, HT29; details: Colon Cancer
Description: as §1, §2

UACC-62 = experiment: NCI60 growth inhibition, UACC-62; details: Melanoma; further: test concentration or dose not given here
Description: as §1, §2

A549/ATCC = experiment: NCI60 growth inhibition, A549/ATCC; details: Non-Small Cell Lung Cancer
Description: as §1, §2

HL-60(TB) = experiment: NCI60 growth inhibition, HL-60(TB); details: Leukemia
Description: as §1, §2

SR = experiment: NCI60 growth inhibition, SR; details: Leukemia
Description: as §1, §2

HS 578T = experiment: NCI60 growth inhibition, HS 578T; details: Breast Cancer
Description: as §1, §2

EKVX = experiment: NCI60 growth inhibition, EKVX; details: Non-Small Cell Lung Cancer
Description: as §1, §2

T-47D = experiment: NCI60 growth inhibition, T-47D; details: Breast Cancer
Description: as §1, §2

SF-268 = experiment: NCI60 growth inhibition, SF-268; details: CNS Cancer; further: test concentration or dose not given here
Description: as §1, §2

U251 = experiment: NCI60 growth inhibition, U251; details: CNS Cancer
Description: as §1, §2

SF-295 = experiment: NCI60 growth inhibition, SF-295; details: CNS Cancer; further: test concentration or dose not given here
Description: as §1, §2

HOP-62 = experiment: NCI60 growth inhibition, HOP-62; details: Non-Small Cell Lung Cancer; further: test concentration or dose not given here
Description: as §1, §2

ACHN = experiment: NCI60 growth inhibition, ACHN; details: Renal Cancer
Description: as §1, §2

SNB-75 = experiment: NCI60 growth inhibition, SNB-75; details: CNS Cancer; further: test concentration or dose not given here
Description: as §1, §2

SNB-19 = experiment: NCI60 growth inhibition, SNB-19; details: CNS Cancer; further: test concentration or dose not given here
Description: as §1, §2

OVCAR-4 = experiment: NCI60 growth inhibition, OVCAR-4; details: Ovarian Cancer; further: test concentration or dose not given here
Description: as §1, §2

SF-539 = experiment: NCI60 growth inhibition, SF-539; details: CNS Cancer
Description: as §1, §2

LOX IMVI = experiment: NCI60 growth inhibition, LOX IMVI; details: Melanoma
Description: as §1, §2

BT-549 = experiment: NCI60 growth inhibition, BT-549; details: Breast Cancer
Description: as §1, §2

MCF7 = experiment: NCI60 growth inhibition, MCF7; details: Breast Cancer
Description: as §1, §2

M14 = experiment: NCI60 growth inhibition, M14; details: Melanoma
Description: as §1, §2

MDA-MB-435 = experiment: NCI60 growth inhibition, MDA-MB-435; details: Melanoma
Description: as §1, §2

COLO 205 = experiment: NCI60 growth inhibition, COLO 205; details: Colon Cancer
Description: as §1, §2

NCI-H460 = experiment: NCI60 growth inhibition, NCI-H460; details: Non-Small Cell Lung Cancer
Description: as §1, §2

RPMI-8226 = experiment: NCI60 growth inhibition, RPMI-8226; details: Leukemia
Description: as §1, §2

DU-145 = experiment: NCI60 growth inhibition, DU-145; details: Prostate Cancer
Description: as §1, §2

SK-OV-3 = experiment: NCI60 growth inhibition, SK-OV-3; details: Ovarian Cancer
Description: as §1, §2

SW-620 = experiment: NCI60 growth inhibition, SW-620; details: Colon Cancer; further: test concentration or dose not given here
Description: as §1, §2

A498 = experiment: NCI60 growth inhibition, A498; details: Renal Cancer; further: test concentration or dose not given here
Description: as §1, §2

K-562 = experiment: NCI60 growth inhibition, K-562; details: Leukemia
Description: as §1, §2

MDA-MB-231/ATCC = experiment: NCI60 growth inhibition, MDA-MB-231/ATCC; details: Breast Cancer
Description: as §1, §2

TK-10 = experiment: NCI60 growth inhibition, TK-10; details: Renal Cancer
Description: as §1, §2

MDA-MB-468 = experiment: NCI60 growth inhibition, MDA-MB-468; details: Breast Cancer; further: test concentration or dose not given here
Description: as §1, §2

OVCAR-5 = experiment: NCI60 growth inhibition, OVCAR-5; details: Ovarian Cancer
Description: as §1, §2

`O=C1c2cccnc2C(=O)c2nc3cc(N4CCN(C5CC5)CC4)ccc3nc21` [Compound 49, 9-(4-cyclopropylpiperazin-1-yl)pyrido[2,3-b]phenazine-5,12-dione] was tested, and the “Growth inhibition (% control) GIPRCNT” value (NCI-H322M) was −96.67 % control, the “Growth inhibition (% control) GIPRCNT” value (CAKI-1) was −5.268 % control and the “Growth inhibition (% control) GIPRCNT” value (UACC-257) was −84.4508 % control. For the same compound, the “Growth inhibition (% control) GIPRCNT” value (SK-MEL-2) was −16.262 % control, the “Growth inhibition (% control) GIPRCNT” value (SK-MEL-28) was −76.8851 % control and the “Growth inhibition (% control) GIPRCNT” value (NCI-H522) was −50.54 % control. For the same compound, the “Growth inhibition (% control) GIPRCNT” value (NCI/ADR-RES) was 20.15 % control, the “Growth inhibition (% control) GIPRCNT” value (HCC-2998) was −80.83 % control and the “Growth inhibition (% control) GIPRCNT” value (NCI-H23) was −56.52 % control. For the same compound, the “Growth inhibition (% control) GIPRCNT” value (IGROV1) was −13.7639 % control, the “Growth inhibition (% control) GIPRCNT” value (786-0) was 28.12 % control and the “Growth inhibition (% control) GIPRCNT” value (HCT-15) was −58.81 % control. The “Growth inhibition (% control) GIPRCNT” value (KM12) was 9.272 % control, the “Growth inhibition (% control) GIPRCNT” value (CCRF-CEM) was 26.17 % control and the “Growth inhibition (% control) GIPRCNT” value (UO-31) was −99.9594 % control. The “Growth inhibition (% control) GIPRCNT” value (HOP-92) was 62.46 % control, the “Growth inhibition (% control) GIPRCNT” value (MALME-3M) was −100 % control and the “Growth inhibition (% control) GIPRCNT” value (NCI-H226) was −49.1 % control. The “Growth inhibition (% control) GIPRCNT” value (HCT-116) was 0.8509 % control, the “Growth inhibition (% control) GIPRCNT” value (MOLT-4) was 26.2 % control and the “Growth inhibition (% control) GIPRCNT” value (PC-3) was 11.58 % control. For the same compound, the “Growth inhibition (% control) GIPRCNT” value (SK-MEL-5) was −98.1218 % control, the “Growth inhibition (% control) GIPRCNT” value (OVCAR-3) was −1.5625 % control and the “Growth inhibition (% control) GIPRCNT” value (SN12C) was −94.7287 % control. The “Growth inhibition (% control) GIPRCNT” value (HT29) was −21.31 % control, the “Growth inhibition (% control) GIPRCNT” value (UACC-62) was −98.5184 % control and the “Growth inhibition (% control) GIPRCNT” value (A549/ATCC) was −53.27 % control. For the same compound, the “Growth inhibition (% control) GIPRCNT” value (HL-60(TB)) was −43.09 % control, the “Growth inhibition (% control) GIPRCNT” value (SR) was −10.03 % control and the “Growth inhibition (% control) GIPRCNT” value (HS 578T) was −36.5499 % control. The “Growth inhibition (% control) GIPRCNT” value (EKVX) was 27.37 % control, the “Growth inhibition (% control) GIPRCNT” value (T-47D) was 22.46 % control and the “Growth inhibition (% control) GIPRCNT” value (SF-268) was 12.46 % control. The “Growth inhibition (% control) GIPRCNT” value (U251) was −32.64 % control, the “Growth inhibition (% control) GIPRCNT” value (SF-295) was −88.89 % control and the “Growth inhibition (% control) GIPRCNT” value (HOP-62) was −56.64 % control. The “Growth inhibition (% control) GIPRCNT” value (ACHN) was −35.0589 % control, the “Growth inhibition (% control) GIPRCNT” value (SNB-75) was −64.69 % control and the “Growth inhibition (% control) GIPRCNT” value (SNB-19) was −81.52 % control. For the same compound, the “Growth inhibition (% control) GIPRCNT” value (OVCAR-4) was −87.768 % control, the “Growth inhibition (% control) GIPRCNT” value (SF-539) was −99.37 % control and the “Growth inhibition (% control) GIPRCNT” value (LOX IMVI) was −46.5487 % control. The “Growth inhibition (% control) GIPRCNT” value (BT-549) was −93.6913 % control, the “Growth inhibition (% control) GIPRCNT” value (MCF7) was −56.1231 % control and the “Growth inhibition (% control) GIPRCNT” value (M14) was −91.1652 % control. The “Growth inhibition (% control) GIPRCNT” value (MDA-MB-435) was −87.4148 % control, the “Growth inhibition (% control) GIPRCNT” value (COLO 205) was −68.34 % control and the “Growth inhibition (% control) GIPRCNT” value (NCI-H460) was −54.12 % control. For the same compound, the “Growth inhibition (% control) GIPRCNT” value (RPMI-8226) was 25.33 % control, the “Growth inhibition (% control) GIPRCNT” value (DU-145) was −75.9298 % control and the “Growth inhibition (% control) GIPRCNT” value (SK-OV-3) was −78.6244 % control. For the same compound, the “Growth inhibition (% control) GIPRCNT” value (SW-620) was −37.75 % control, the “Growth inhibition (% control) GIPRCNT” value (A498) was −88.1317 % control and the “Growth inhibition (% control) GIPRCNT” value (K-562) was 0.8659 % control. For the same compound, the “Growth inhibition (% control) GIPRCNT” value (MDA-MB-231/ATCC) was 15.11 % control, the “Growth inhibition (% control) GIPRCNT” value (TK-10) was 0.1224 % control and the “Growth inhibition (% control) GIPRCNT” value (MDA-MB-468) was −21.9933 % control. For the same compound, the “Growth inhibition (% control) GIPRCNT” value (OVCAR-5) was −82.2933 % control.
